Holding throughout (format): in vivo
The subject of experiment [1] is Erysiphe graminis tritici (powdery mildew). In words: Test 1 greenhouse foliar spray screen, powdery mildew on wheat. The following applies: Blumeria graminis, foliar, Test 1, foliar spray on wheat; disease control rating at 400 ppm / 100 ppm; read-out: POWD MDEW.
Experiment [2] concerns Pyricularia oryzae (rice blast). Description: whole plant or invertebrate. As to conditions: Pyricularia oryzae, foliar, read-out: RICE BLAST, Test 1, foliar spray on rice; disease control rating at 400 ppm / 100 ppm.
For experiment [3], the system named is Puccinia recondita tritici (leaf rust). Description: Test 1 greenhouse foliar spray screen, leaf rust on wheat. The following applies: Puccinia recondita, foliar, Test 1, foliar spray on wheat; disease control rating at 400 ppm / 100 ppm.
Experiment [4] deals with Botrytis cinerea (gray mold). Description: Test 1 greenhouse foliar spray screen, gray mold on grape berries. The following applies: Botrytis cinerea, foliar; Test 1, spray on grape berries; disease control rating at 400 ppm / 100 ppm.
Experiment [5] relates to Pseudoperonospora cubensis (downy mildew). Description: Test 1 greenhouse foliar spray screen, downy mildew on squash. As to conditions: Pseudoperonospora cubensis, foliar, Test 1, foliar spray on squash; disease control rating at 400 ppm / 100 ppm; read-out: DOWN MDEW.
Experiment [6] concerns southern armyworm (Spodopetra eridania Cramer). In words: Mite/insect screen, SAW. As to conditions: Spodoptera eridania, foliar, percent mortality, foliar spray on squash, read-out: SAW RESULTS %; for mortality at 400 ppm: rate 400 ppm; for mortality at 200 ppm: rate 200 ppm. In outline:
(§1)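 First, each compound was dissolved in an emulsifier-containing acetone/alcohol mixture and diluted with water. Next, leaves were sprayed until runoff and left to dry for an hour. For southern armyworm, two excised uninfested leaves went into a Petri dish with larvae; percent mortality followed standard exposure periods.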

In experiment [7] the test system is Twospotted spider mites (Tetranychus urticae Koch). Description: Mite/insect screen, SM. As to conditions: Tetranychus urticae, foliar, percent mortality, foliar spray on squash, read-out: SM RESULTS %; for mortality at 400 ppm: rate 400 ppm; for mortality at 200 ppm: rate 200 ppm. In outline: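 Read-out: percent mortality after standard exposure periods. Test solutions were water dilutions of compound dissolved in acetone/alcohol (50:50) with emulsifier blends; leaves were sprayed to runoff on both surfaces and air-dried for one hour before exposure.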

Experiment [8] deals with melon aphids (Aphis gossypii Glover). Description: Mite/insect screen, MA. The following applies: Aphis gossypii, foliar, percent mortality, foliar spray on squash, read-out: MA RESULTS %; for mortality at 400 ppm: rate 400 ppm; for mortality at 200 ppm: rate 200 ppm. In outline:
as §1

The subject of a further experiment is corn rootworm. In words: Mite/insect screen, CRW. As to conditions: percent mortality, read-out: CRW RESULTS %; for mortality at 24 ppm: CRW rate 24.00 ppm; for mortality at 12 ppm: CRW rate 12.00 ppm. The gist of the method:
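Stock in acetone:alcohol 1:1 + TOXIMUL R 23 g/L + TOXIMUL S 13 g/L; diluted with water to indicated concentrations; mortality (%) after standard exposure.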

Consider `CC(C)(C)c1ccc(CCOc2ccnc3c(Br)cccc23)cc1` [Example 198, 8-bromo-4-[2-(4-(t-butyl)phenyl)ethoxy]quinoline], for which the pest or weed control at 400 ppm in experiment [1], in experiment [2], in [3], in [4] and in [5] was 0 to 19% throughout. Moreover, the mortality at 400 ppm in experiment [6] worked out at 0%; in experiment [7], 90%; in experiment [8] it was 80%. For the same compound, in the experiment with corn rootworm, the mortality at 24 ppm turned out to be 0%.
Take `COc1ccc(CCOc2ccnc3c(F)cccc23)cc1OC` [Example 199, 4-[2-(3,4-dimethoxyphenyl)ethoxy]-8-fluoroquinoline]: the pest or weed control at 400 ppm lay in the range of 90 to 100% in experiment [1]; 90 to 100% in [2]; 90 to 100% in experiment [3]; 0 to 19% in [4]; 90 to 100% in [5]. In addition, the mortality at 400 ppm in [6], in experiment [7] and in [8] was 0% throughout. Further, the mortality at 24 ppm in the experiment on corn rootworm is 100%.
Consider `Cc1ccc(CCOc2ccnc3cc(Cl)ccc23)cc1` [Example 204, 7-chloro-4-[2-(4-methylphenyl)ethoxy]quinoline], for which the pest or weed control at 400 ppm in experiment [1] fell in the range of 20 to 89%; in [2], 0 to 19%; in [3], 20 to 89%; in [4], 0 to 19%; in [5], 20 to 89%. Besides, the mortality at 200 ppm in [6], in experiment [7] and in [8] was 0% each time. In addition, the mortality at 400 ppm is 100% in experiment [6], 0% in experiment [7] and 50% in experiment [8]. Further, the mortality at 12 ppm in the experiment on corn rootworm is 0%. Besides, in the experiment with corn rootworm, the mortality at 24 ppm was 0%.
As to `Cc1ccccc1CCOc1ccnc2c(F)cccc12` [Example 205, 8-fluoro-4-[2-(2-methylphenyl)ethoxy]quinoline], the pest or weed control at 400 ppm in [1] lay within 90 to 100%; in [2], 90 to 100%; in experiment [3], 90 to 100%; in experiment [4] it was 0 to 19%; in experiment [5] it was 90 to 100%. For the same compound, the mortality at 400 ppm in experiment [6], in [7] and in experiment [8] was 0% in each case. For the same compound, the mortality at 24 ppm in the experiment on corn rootworm was determined as 0%.
Take `CC(Cc1ccccc1)Oc1ccnc2c(F)cccc12` (stereo not shown) [Example 214, 8-fluoro-4-[1-(phenylmethyl)ethoxy]quinoline]: the pest or weed control at 400 ppm is 20 to 89% in experiment [1]; 90 to 100% in experiment [2]; 20 to 89% in experiment [3]; 0 to 19% in [4]; 90 to 100% in experiment [5]. Also, the mortality at 400 ppm in experiment [6], in experiment [7] and in experiment [8] was 0% throughout. Moreover, the mortality at 24 ppm with corn rootworm stood at 0%.
On to `Clc1ccc(CCOc2ccnc3c(Br)cccc23)cc1` [Example 215, 8-bromo-4-[2-(4-chlorophenyl)ethoxy]quinoline], for which the pest or weed control at 400 ppm is 0 to 19% in [1]; 20 to 89% in experiment [2]; 20 to 89% in experiment [3]; 0 to 19% in [4]; 90 to 100% in experiment [5]. Also, the mortality at 400 ppm in experiment [6] was found to be 0%; in experiment [7], 100%; in experiment [8], 100%. Also, in the experiment on corn rootworm, the mortality at 24 ppm was found to be 0%.
Consider `Clc1ccccc1CCOc1ccnc2c(Cl)cccc12` [Example 216, 8-chloro-4-[2-(2-chlorophenyl)ethoxy]quinoline], for which the pest or weed control at 400 ppm in [1] lay in the range of 90 to 100%; in experiment [2], 90 to 100%; in [3] it was 90 to 100%; in experiment [4], 0 to 19%; in experiment [5] it was 90 to 100%. The mortality at 400 ppm in experiment [6], in experiment [7] and in [8] was 0% in each case. Besides, in the experiment with corn rootworm, the mortality at 24 ppm turned out to be 100%.
`CC(C)c1ccccc1CCOc1ccnc2c(F)cccc12` [Example 217, 8-fluoro-4-[2-(2-(1-methylethyl)phenyl)ethoxy]quinoline]: the pest or weed control at 400 ppm in [1] lay in the range of 90 to 100%; in experiment [2], 90 to 100%; in experiment [3], 90 to 100%; in experiment [4], 0 to 19%; in experiment [5], 90 to 100%. The mortality at 400 ppm in [6], in experiment [7] and in experiment [8] was 0% in each case. Also, the mortality at 24 ppm with corn rootworm is 0%.
For the compound `Fc1cccc2c(OCCc3cccc(Sc4ccccc4)c3)ccnc12` [Example 218, 8-fluoro-4-[2-(3-(phenylthio)phenyl)ethoxy]quinoline], the pest or weed control at 400 ppm lay in the range of 90 to 100% in [1]; 90 to 100% in experiment [2]; 90 to 100% in experiment [3]; 0 to 19% in experiment [4]; 90 to 100% in experiment [5]. Further, the mortality at 400 ppm in [6] amounted to 100%; in experiment [7], 0%; in [8], 0%. Also, the mortality at 24 ppm with corn rootworm stood at 0%.
As for `Fc1cccc2c(OCCc3ccc(Br)cc3)ccnc12` [Example 223, 4-[2-(4-bromophenyl)ethoxy]-8-fluoroquinoline], the pest or weed control at 400 ppm in [1] lay within 90 to 100%; in [2], 90 to 100%; in experiment [3], 90 to 100%; in experiment [4], 0 to 19%; in experiment [5], 0 to 19%. In addition, the mortality at 200 ppm in [6] came out at 0%; in [7], 0%; in experiment [8] it was 80%. Moreover, the mortality at 400 ppm in [6] came out at 0%; in experiment [7], 0%; in [8], 100%. Further, the mortality at 12 ppm with corn rootworm came to 80%. Further, in the experiment on corn rootworm, the mortality at 24 ppm is 0%.
For `Clc1ccc(CCOc2ccnc3cc(Cl)ccc23)cc1` [Example 226, 7-chloro-4-[2-(4-chlorophenyl)ethoxy]quinoline], the pest or weed control at 400 ppm in experiment [1] is 20 to 89%; in experiment [2] it was 0 to 19%; in [3], 20 to 89%; in experiment [4] it was 0 to 19%; in experiment [5], 20 to 89%. In addition, the mortality at 200 ppm in experiment [6], in [7] and in [8] was 0% throughout. In addition, the mortality at 400 ppm in [6], in experiment [7] and in experiment [8] was 0% throughout. For the same compound, the mortality at 12 ppm with corn rootworm came out at 0%. Besides, the mortality at 24 ppm in the experiment with corn rootworm is 0%.
On to `Cc1cc(C)c(CCOc2ccnc3c(F)cccc23)c(C)c1` [Example 227, 8-fluoro-4-[2-(2,4,6-trimethylphenyl)ethoxy]quinoline], for which the pest or weed control at 400 ppm in [1] is 0 to 19%; in [2] it was 20 to 89%; in [3], 20 to 89%; in [4], 0 to 19%; in experiment [5] it was 0 to 19%. Besides, the mortality at 200 ppm in [6], in experiment [7] and in experiment [8] was 0% in each case. The mortality at 400 ppm in experiment [6], in experiment [7] and in experiment [8] was 0% in each case. In addition, the mortality at 12 ppm in the experiment on corn rootworm is 0%. The mortality at 24 ppm with corn rootworm is 0%.

Values taken from patent EP0326331B1, “Substituted quinolines and cinnolines” (Dow AgroSciences LLC, priority 1988, dated 1989).
